Earlier results in patent publication US10806792B2 (Mayne Pharma International Pty Ltd., priority 2012, dated 2020).
Where two headings read alike, the source gives them in different places.

What was measured:
[1] = test system: typical infecting organisms for specific superficial and systemic mycoses; settings: for MIC RANGE: in µg/mL

Structure (SMILES): CCC(C)n1ncn(-c2ccc(N3CCN(c4ccc(OCC5COC(Cn6cncn6)(c6ccc(Cl)cc6Cl)O5)cc4)CC3)cc2)c1=O (stereo not drawn) [itraconazole]
- MIC RANGE ([1]; A. flavus complex, Aspergillosis): 0.03-8
- MIC RANGE ([1]; A. nidulans complex, Aspergillosis): 0.03-8
- MIC RANGE ([1]; A. niger complex, Aspergillosis): 0.03-8
- MIC RANGE ([1]; A. terreus complex, Aspergillosis): 0.03-1
- MIC RANGE ([1]; C. albicans, Candidiasis): 0.008-8
- MIC90 ([1]; C. glabrata, Candidiasis): MIC90 = 16
- MIC RANGE ([1]; C. kruset, Candidiasis): 0.008-8
- MIC RANGE ([1]; C. parapsilosis, Candidiasis): 0.016-2
- MIC RANGE ([1]; C. tropicalis, Candidiasis): 0.03-8
- MIC RANGE ([1]; Epidermophyton floccosum, tinea corporis): 0.01-8
- MIC RANGE ([1]; Epidermophyton floccosum, tinea cruris): 0.01-8
- MIC RANGE ([1]; Epidermophyton floccosum, tinea manuum): 0.01-8
- MIC RANGE ([1]; Epidermophyton floccosum, tinea pedis): 0.01-8
- MIC RANGE ([1]; Epidermophyton floccosum, tinea unguium): 0.01-8
- MIC RANGE ([1]; Microsporum sp. (audounti, canis, gypseum, ferrugineum et al.), tinea capitis): 0.01-4
- MIC RANGE ([1]; Microsporum sp. (canis, et al.), tinea cruris): 0.01-4
- MIC RANGE ([1]; Microsporum sp. (canis, et al.), tinea unguium): 0.01-4
- MIC RANGE ([1]; Microsporum sp. (canis, gypseum, et al.), tinea corporis): 0.01-4
- MIC RANGE ([1]; Microsporum sp. (canis, gypseum, et al.), tinea pedis): 0.01-4
- MIC RANGE ([1]; Trichophyton sp. (rubrum, interdigitale, mentagrophytes.), tinea manuum): 0.01-8
- MIC RANGE ([1]; Trichophyton sp. (rubrum, tonsurans interdigitale, mentagrophytes, concentricim, violaceum et al.), tinea corporis): 0.01-8
- MIC RANGE ([1]; Trichophyton sp. (rubrum, tonsurans interdigitale, mentagrophytes, et al.), tinea cruris): 0.01-8
- MIC RANGE ([1]; Trichophyton sp. (rubrum, tonsurans interdigitale, mentagrophytes, et al.), tinea pedis): 0.01-8
- MIC RANGE ([1]; Trichophyton sp. (rubrum, tonsurans interdigitale, mentagrophytes, et al.), tinea unguium): 0.01-8
- MIC RANGE ([1]; Trichophyton sp. (tonsurans violaceum, soudanese, schoenleinii, mentagrophytes, verrucossum, et al.), tinea capitis): 0.01-8
- absolute oral bioavailability (100 mg dose of itraconazole oral solution): approximately 55%
- reduction of Cmax and AUC in the fasting state vs after a light meal (in vivo): 50-70%
